Measurements: patent publication US6818407B2, “Anti-endotoxic antimicrobial cationic peptides and methods of use therfor” (priority 1998, dated 2004)
Ends that are not written are not given here.

Legend:
Assay type in all cases: cell-based
[1] = tested on: P. aeruginosa (H103); assay: Synergy study (checkerboard titration) with hen white lysozyme; settings: for Lowest [CP] showing synergy: cationic peptide concentration, combined with lysozyme; for Lowest [Lyso] showing synergy: lysozyme concentration, combined with the peptide
Description: (§1) The biological activity of the peptides can be determined by standard methods known to those of skill in the art, such as Aminimal inhibitory concentration (MIC)≅ assay described in the present examples, whereby the lowest concentration at which no change in OD is observed for a given period of time is recorded as MIC. Alternatively, Afractional inhibitory concentration (FIC)≅ is also useful for determination of synergy between the peptides of the invention, or the peptides in combination with known antibiotics. FICs are performed by checkerboard titrations of peptides in one dimension of a microtiter plate, and of antibiotics in the other dimension, for example. The FIC is calculated by looking at the impact of one antibiotic on the MIC of the other and vice versa. […] Preferably, an FIC of less than 0.5 is obtained for synergism. As used herein, FIC can be determined as follows: [formula]

[2] = tested on: Salmonella typhi; assay: as above
Description: as §1

[3] = tested on: E. coli; assay: as above; settings: for Lowest [CP] showing synergy: cationic peptide concentration, combined with lysozyme; for Lowest [Lyso] showing synergy: lysozyme concentration, combined with the peptide
Description: as §1

[4] = tested on: β-lactamase derepressed mutant (H547) of P. aeruginosa; assay: microbe, parasite or virus in culture; settings: for (B) MIC of Carb when combined with peptide: Carbenicillin with peptide at concentration (A); for (B) MIC of Carb when combined with peptide / FIC index / MIC A MIC of Peptides / (A) Peptide doses together with Carb: P. aeruginosa H547; for FIC index: peptide + Carbenicillin, about 0.5 or less synergy, 1.0 additivity, >1.0 antagonism; for MIC A MIC of Peptides: peptide alone; for (A) Peptide doses together with Carb: peptide concentration in combination with Carbenicillin
Description: as §1
(§2) To test whether the peptides of the invention synergize with various antibiotics, the following method was employed. Fractional Inhibitory Concentration (FIC) was used to determine synergy of peptides combined with antibiotics (e.g., carbenicillin/ciprofloxacin) against Pseudomonas aeruginosa. The following methodology was followed:
(§3) (1) Determination of MIC of cationic peptides (MIC A):
(§4) 100 μl Mueller Hinton broth (MHB) was added per well
(§5) 12.5 μl of 10× test concentration peptide was added per well to get final peptide concentration of e.g., 128, 64, 32, . . . 0.025 μg/ml from row 1 to 11;
(§6) 10 μl of 10^−4 dilution of overnight bacterial culture was added per well.
(§7) (2) Determination of MIC of Carbenicillin/Ciprofloxacin (MIC B):
(§8) 100 μl MHB was added per well;
(§9) 100 μl of 2× test concentration of antibiotic was added in the first well of the row, and doubling dilutions performed across the plate from column 1 to 11;
(§10) (3) Determination of MIC of antibiotics (B) when combined with peptides at concentration A:
(§11) 100 μl Carbenicillin (512 μg/ml) or Ciprofloxacin (8 μg/ml) was added in each well of column 1; doubling dilutions were performed across the plate;
(§12) 100 μl of the peptide was added in all wells of row 1, mixed, and 100 μl withdrawn and added to row 2, etc., creating a checkerboard titration.
(§13) 10 μl of 10^−4 dilution of overnight culture was added per well;
(§14) plates were incubated at 37EC for 18-24 hours. Combination MIC values A and B were taken as the lowest concentration of drug that reduced bacterial growth by more than 50% in any given column.
(§15) (4) FIC index=FICA+FICB=(A)/MIC A+(B)/MIC B. An FIC index of approximately 0.5 or less indicates synergy; 1.0 reflects additivity; and >1.0 indicates antagonism.

[5] = tested on: mutant (Nal B, H744) of P. aeruginosa; assay: microbe, parasite or virus in culture; settings: for (B) MIC of Cipro when combined with peptide: ciprofloxacin with peptide at concentration (A); for (B) MIC of Cipro when combined with peptide / FIC index / (A) Peptide doses together with Cipro: Nal B, H744; for FIC index: peptide + ciprofloxacin; for MIC A MIC of Peptides: peptide alone, P. aeruginosa mutant Nal B, H744 (Table 5); for (A) Peptide doses together with Cipro: peptide concentration in combination with ciprofloxacin
Description: as §1, §2, §3, §4, §5, §6, §7, §8, §9, §10, §11, §12, §13, §14, §15

[6] = tested on: P. aeruginosa efflux mutant (Nal B, H744); assay: microbe, parasite or virus in culture; settings: for (B) MIC of Nal when combined with peptide: nalidixic acid with peptide at concentration (A); for FIC index: peptide + nalidixic acid; for MIC A MIC of Peptides: peptide alone, P. aeruginosa efflux mutant Nal B, H744 (Table 6); for (A) Peptide doses together with Nal: peptide concentration in combination with nalidixic acid
Description: as §1, §2, §3, §4, §5, §6, §7, §8, §9, §10, §11, §12, §13, §14, §15

[7] = tested on: S. aureus; assay: MIC, broth microdilution assay in polypropylene microtiter trays; settings: average of three separate experiments
Description: as §1
(§16) A method which employed polypropylene microtiter trays in a broth microdilution assay was developed.

[8] = tested on: P. aeruginosa; assay: as above; settings: average of three separate experiments
Description: as §1, §16

[9] = tested on: E. coli; assay: as above; settings: average of three separate experiments
Description: as §1, §16

[10] = tested on: S. aureus K147; assay: as above; settings: average of three separate experiments
Description: as §1, §16

[11] = tested on: P. aeruginosa gyrase mutant (Nal A, H374); settings: for (B) MIC of Nal when combined with peptide: nalidixic acid with peptide at concentration (A), unit from method; for (B) MIC of Nal when combined with peptide / FIC index / (A) Peptide doses together with Nal: Nal A; for FIC index: peptide + nalidixic acid; for MIC A MIC of Peptides: peptide alone, P. aeruginosa gyrase mutant Nal A; for (A) Peptide doses together with Nal: peptide concentration in combination with nalidixic acid
Description: as §1, §2, §3, §4, §5, §6, §7, §8, §9, §10, §11, §12, §13, §14, §15

[12] = tested on: Staphylococcus epidermidis (C621); settings: Mueller Hinton Broth
Description: as §1
(§17) These peptides varied in activity (Table 11), however, the C-terminally capped pleurocidin especially and its N-terminally capped lysine derivative had much better activities against a variety of bacteria including Vibrio anguillarum (Va), Aeromonas salmonicida (As), Staphylococcus epidermidis (C621), Salmonella typhimurium wild type (C587) and phoP phoQ mutant (C610), and Pseudomonas aeruginosa wild type (K799) and outer membrane barrier altered (Z61). The antimicrobial peptide CEME, a fusion peptide made from portions of an insect defensin ceropin A and the bee venom peptide melittin (Piers and Hancock, Mol. Microbiol., 12:951-8, 1994), as well as the known antibiotics polymyxin B and gentamicin were used as controls. Replacing the pleurocidin N-terminus with the dermaseptin N-terminus had no effect. Replacing pleurocidin N-terminus with the ceratoxin N-terminus reduced activity. […] Amidating the C-terminus improved antimicrobial activity. Replacing the pleurocidin C-terminus with the misgurin C-terminus had no effect.
(§18) Bacteria included Vibrio anguillarum (Va), Aeromonas salmonicida (As), Staphylococcus epidermidis (C621), Salmonella typhimurium wild type (C587) and phoP phoQ mutant (C6 10), and Pseudomonas aeruginosa wild type (K799) and outer membrane barrier altered (Z61).

[13] = tested on: Aeromonas salmonicida (As); settings: Mueller Hinton Broth
Description: as §1, §17, §18

[14] = tested on: Salmonella typhimurium wild type (C587); settings: Mueller Hinton Broth
Description: as §1, §17, §18

[15] = tested on: Pseudomonas aeruginosa outer membrane barrier altered (Z61); settings: Mueller Hinton Broth
Description: as §1, §17, §18

[16] = tested on: Vibrio anguillarum (Va); settings: Mueller Hinton Broth
Description: as §1, §17, §18

[17] = tested on: Salmonella typhimurium phoP phoQ mutant (C610); settings: Mueller Hinton Broth
Description: as §1, §17, §18

[18] = tested on: Pseudomonas aeruginosa wild type (K799); settings: Mueller Hinton Broth
Description: as §1, §17, §18

[19] = efflux mutant Nal B, H744, unit from method

Compound | FIC for combination of cationic peptide and lysozyme [1] | Lowest [CP] showing synergy [1] | Lowest [Lyso] showing synergy [1] | FIC for combination of cationic peptide and lysozyme [2] | FIC for combination of cationic peptide and lysozyme [3] | Lowest [CP] showing synergy [3] | Lowest [Lyso] showing synergy [3] | (B) MIC of Carb when combined with peptide [4] | FIC index [4] | MIC A MIC of Peptides [4] | (A) Peptide doses together with Carb [4] | (B) MIC of Cipro when combined with peptide [5] | FIC index [5] | MIC A MIC of Peptides [5] | (A) Peptide doses together with Cipro [5] | (B) MIC of Nal when combined with peptide [6, 19] | FIC index ([6]; efflux mutant Nal B, H744) | MIC A MIC of Peptides [6] | (A) Peptide doses together with Nal ([6]; efflux mutant Nal B, H744) | MIC S. aureus [7] | also measured
KKWKKFIKKIGIGAVLTTPGAKK [CPα3] | 0.08 | 1.3 µg/mL | 7.8 µg/mL | Confluent | 0.31 | 0.65 µg/mL | 62.5 µg/mL | 32 µg/mL | 0.75 | 16 µg/mL | 4 µg/mL | .125 µg/mL | .75 | 4 µg/mL | 1 µg/mL | 400 µg/mL | 0.50 | 4 µg/mL | 1 µg/mL | >64 µg/mL | MIC P. aeruginosa [8]: ≧64 μg/ml; MIC E. coli [9]: 4 µg/mL; MIC S. aureus K147 [10]: >64 µg/mL; (B) MIC of Nal when combined with peptide [11]: 800 µg/mL; FIC index [11]: 0.50; MIC A MIC of Peptides [11]: 8 µg/mL; (A) Peptide doses together with Nal [11]: 1 µg/mL
SIGSAFKKAAHVGKHVGKAALTHYL-NH2 [P-CER] |  |  |  |  |  |  |  |  |  |  |  |  |  |  |  |  |  |  |  |  | MIC C621 [12]: >64 µg/mL; MIC As [13]: 8 µg/mL; MIC C587 [14]: >64 µg/mL; MIC Z61 [15]: >64 µg/mL; MIC Va [16]: 64 µg/mL; MIC C610 [17]: 2 µg/mL; MIC K799 [18]: >64 µg/mL
CC1(C)S[C@@H]2[C@H](NC(=O)C(C(=O)O)c3ccccc3)C(=O)N2[C@H]1C(=O)O (stereo partly shown) [Carb, Carbenicillin, reference compound] |  |  |  |  |  |  |  |  |  |  |  |  |  |  |  |  |  |  |  |  | MIC ([4]; Pseudomonas aeruginosa, read-out: MIC B MIC of Carb): 64 µg/mL
KWKSFIKKLTSAAKKVTTAAKPLTK [CPα1] | 0.28 | 5.21 µg/mL | 7.8 µg/mL | 0.63 | 0.31 | 0.65 µg/mL | 7.8 µg/mL | 32 µg/mL | 0.75 | 16 µg/mL | 4 µg/mL | .125 µg/mL | .63 | 8 µg/mL | 1 µg/mL | 400 µg/mL | 0.38 | 8 µg/mL | 1 µg/mL | >64 µg/mL | Lowest [CP] showing synergy ([2]; cationic peptide concentration, combined with lysozyme): 41.7 µg/mL; Lowest [Lyso] showing synergy ([2]; lysozyme concentration, combined with the peptide): 125 µg/mL; MIC P. aeruginosa [8]: ≧64 μg/ml; MIC E. coli [9]: 1.5 µg/mL; MIC S. aureus K147 [10]: >64 µg/mL; (B) MIC of Nal when combined with peptide [11]: 800 µg/mL; FIC index [11]: 0.38; MIC A MIC of Peptides [11]: 8 µg/mL; (A) Peptide doses together with Nal [11]: 1 µg/mL
CCn1cc(C(=O)O)c(=O)c2ccc(C)nc21 [Nal, nalidixic acid, reference compound] |  |  |  |  |  |  |  |  |  |  |  |  |  |  |  |  |  |  |  |  | MIC ([6]; Pseudomonas aeruginosa, read-out: MIC B MIC of Nal): 3200 µg/mL; MIC B MIC of Nal ([6]; nalidixic acid alone, efflux mutant Nal B, H744, unit from method): 3200 µg/mL
O=C(O)c1cn(C2CC2)c2cc(N3CCNCC3)c(F)cc2c1=O [Cipro, ciprofloxacin, reference compound] |  |  |  |  |  |  |  |  |  |  |  |  |  |  |  |  |  |  |  |  | MIC ([5]; Pseudomonas aeruginosa, read-out: MIC B MIC of Cipro): 0.25 µg/mL
